{"source": "ChEMBL document CHEMBL5550186", "about": "“Exploring the Potential of Cyclic Peptidyl Antitumor Agents Derived from Natural Macrocyclic Peptide Phakellistatin 13” (J Med Chem, 2024)", "key": {"[1]": {"test_system": "Cell membrane", "assay": "Induction of mitochondrial membrane potential loss in human HepG2 cells assessed as decrease in fluorescence at 10 uM by Rhodamine 123 staining based flow cytometry", "format": "cell membranes", "settings": "time 12-48 hrs, TDE = time-dependent effect"}, "[2]": {"test_system": "HepG2", "assay": "Induction of cell cycle arrest in human HepG2 cells assessed as accumulation of cells at G2/M phase at 20 uM incubated for 48 hrs by PI staining based flow cytometry analysis (reference value: 6.38%)", "format": "functional"}, "[3]": {"test_system": "HepG2", "assay": "Induction of morphological changes in human HepG2 cells assessed as decrease in cell adhesion at 40 uM measured after 12 to 24 hrs by fluorescence inverted microscopic analysis", "format": "functional, cell-based", "settings": "time 12-24 hrs"}, "[4]": {"assay": "Mutagenicity in Salmonella typhimurium by Ames test", "format": "toxicity", "settings": "salmonella enterica subsp. enterica serovar typhimurium"}, "[5]": {"test_system": "HepG2", "assay": "Induction of cell cycle arrest in human HepG2 cells assessed as accumulation of cells at <2N phase at 10 uM incubated for 48 hrs by PI staining based flow cytometry analysis (reference value: 0.027%)", "format": "functional"}, "[6]": {"test_system": "HepG2", "assay": "Induction of cell cycle arrest in human HepG2 cells assessed as accumulation of cells at >G2/M phase at 10 uM incubated for 24 hrs by PI staining based flow cytometry analysis (reference value: 28.0%)", "format": "functional"}, "[7]": {"test_system": "HepG2", "assay": "Induction of cell cycle arrest in human HepG2 cells assessed as accumulation of cells at S phase at 20 uM incubated for 48 hrs by PI staining based flow cytometry analysis (reference value: 39.6%)", "format": "functional"}, "[8]": {"test_system": "HepG2", "assay": "Induction of cell cycle arrest in human HepG2 cells assessed as accumulation of cells at G2/M phase at 10 uM incubated for 48 hrs by PI staining based flow cytometry analysis (reference value: 6.38%)", "format": "functional"}, "[9]": {"test_system": "HepG2", "assay": "Induction of apoptosis in human HepG2 cells assessed as early apoptotic cells at 5 uM incubated for 48 hrs by annexin V-FITC/PI staining based flow cytometry analysis (reference value: 0.50%)", "format": "functional"}, "[10]": {"test_system": "HepG2", "assay": "Induction of cell cycle arrest in human HepG2 cells assessed as accumulation of cells at 2N phase at 20 uM incubated for 48 hrs by PI staining based flow cytometry analysis (reference value: 26.0%)", "format": "functional"}, "[11]": {"assay": "Toxicity in Balb/c mouse assessed as effect on liver at 6 mg/kg, iv measured after 14 days by H and E staining based analysis", "format": "organism-based", "settings": "in vivo, 336 h, time 14 day"}, "[12]": {"assay": "Toxicity in Balb/c mouse assessed as effect on spleen at 6 mg/kg, iv measured after 14 days by H and E staining based analysis", "format": "organism-based", "settings": "in vivo, 336 h, time 14 day"}, "[13]": {"test_system": "HepG2", "assay": "Induction of cell cycle arrest in human HepG2 cells assessed as accumulation of cells at <2N phase at 10 uM incubated for 24 hrs by PI staining based flow cytometry analysis (reference value: 0.027%)", "format": "functional"}, "[14]": {"assay": "Effect on MAML3 expression level in human HepG2 cells assessed as fold change by KEGG enrichment analysis", "format": "functional"}, "[15]": {"test_system": "HepG2", "assay": "Induction of cell cycle arrest in human HepG2 cells assessed as accumulation of cells at G2/M phase at 5 uM incubated for 48 hrs by PI staining based flow cytometry analysis (reference value: 6.38%)", "format": "functional"}, "[16]": {"assay": "Upregulation of PGF expression level in human HepG2 cells assessed as fold change by KEGG enrichment analysis", "format": "functional"}, "[17]": {"test_system": "HepG2", "assay": "Induction of cell cycle arrest in human HepG2 cells assessed as accumulation of cells at 2N phase at 5 uM incubated for 48 hrs by PI staining based flow cytometry analysis (reference value: 26.0%)", "format": "functional"}, "[18]": {"test_system": "HepG2", "assay": "Induction of autophagy in human HepG2 cells assessed as increase in formation of autophagosomes at 5 to 10 uM incubated for 24 hrs by acridine orange staining based laser confocal microscopic analysis", "format": "functional, cell-based", "settings": "dose 5-10 µM"}, "[19]": {"test_system": "HepG2", "assay": "Induction of morphological changes in human HepG2 cells assessed as increase in cell death at 40 uM measured after 48 hrs by fluorescence inverted microscopic analysis", "format": "functional, cell-based"}, "[20]": {"assay": "Upregulation of FGF21 expression level in human HepG2 cells assessed as fold change by KEGG enrichment analysis", "format": "functional"}, "[21]": {"assay": "Toxicity in Balb/c mouse assessed as effect on heart at 6 mg/kg, iv measured after 14 days by H and E staining based analysis", "format": "organism-based", "settings": "in vivo, 336 h, time 14 day"}, "[22]": {"test_system": "BEL-7404 tumor cell line", "assay": "Antiproliferative activity against human BEL-7404 tumor cell line incubated for 48 hrs by MTT assay", "format": "functional, cell-based", "settings": "BEL-7404, 48 h"}, "[23]": {"test_system": "HepG2", "assay": "Induction of apoptosis in human HepG2 cells assessed as necrotic cells at 10 uM incubated for 48 hrs by annexin V-FITC/PI staining based flow cytometry analysis (reference value: 0%)", "format": "functional"}, "[24]": {"test_system": "HepG2", "assay": "Induction of apoptosis in human HepG2 cells assessed as late apoptotic cells at 10 uM incubated for 48 hrs by annexin V-FITC/PI staining based flow cytometry analysis (reference value: 0.16%)", "format": "functional"}, "[25]": {"test_system": "HepG2", "assay": "Induction of apoptosis in human HepG2 cells assessed as viable cells at 20 uM incubated for 48 hrs by annexin V-FITC/PI staining based flow cytometry analysis (reference value: 99.3%)", "format": "functional", "settings": "read-out: Activity"}, "[26]": {"test_system": "HepG2", "assay": "Induction of morphological changes in human HepG2 cells assessed as deterioration of cell membrane integrity at 40 uM measured after 12 to 24 hrs by fluorescence inverted microscopic analysis", "format": "functional, cell-based", "settings": "time 12-24 hrs"}, "[27]": {"test_system": "HepG2", "assay": "Induction of apoptosis in human HepG2 cells assessed as viable cells at 10 uM incubated for 48 hrs by annexin V-FITC/PI staining based flow cytometry analysis (reference value: 99.3%)", "format": "functional", "settings": "read-out: Activity"}, "[28]": {"test_system": "HepG2", "assay": "Downregulation of MDM2 level in human HepG2 cells at 5 to 20 uM measured after 48 hrs by Western blot analysis", "format": "functional, cell-based", "settings": "dose 5-20 µM"}, "[29]": {"assay": "Upregulation of CXCL2 expression level in human HepG2 cells assessed as fold change by KEGG enrichment analysis", "format": "functional"}, "[30]": {"assay": "in vitro", "settings": "human, Caco-2", "description": "Apparent permeability of compound in human Caco-2 cells at 10 uM measured upto 120 mins by LC-MS/MS analysis"}, "[31]": {"test_system": "HepG2", "assay": "Induction of cell cycle arrest in human HepG2 cells assessed as accumulation of cells at <2N phase at 20 uM incubated for 48 hrs by PI staining based flow cytometry analysis (reference value: 0.027%)", "format": "functional"}, "[32]": {"assay": "Downregulation of DKK1 expression level in human HepG2 cells assessed as fold change by KEGG enrichment analysis", "format": "functional"}, "[33]": {"assay": "Upregulation of […] expression level in human HepG2 cells assessed as fold change by KEGG enrichment analysis", "format": "functional"}, "[34]": {"assay": "Upregulation of NGFR expression level in human HepG2 cells assessed as fold change by KEGG enrichment analysis", "format": "functional"}, "[35]": {"assay": "Upregulation of TRAF1 expression level in human HepG2 cells assessed as fold change by KEGG enrichment analysis", "format": "functional"}, "[36]": {"test_system": "Cell membrane", "assay": "Induction of mitochondrial membrane potential loss in human HepG2 cells assessed as decrease in fluorescence at 20 uM measured after 48 hrs by Rhodamine 123 staining based flow cytometry (reference value: 66.8%)", "format": "cell membranes", "design": "scale not given: the % may be the effect or the level left"}, "[37]": {"test_system": "HepG2", "assay": "Induction of cell cycle arrest in human HepG2 cells assessed as accumulation of cells at >G2/M phase at 10 uM incubated for 48 hrs by PI staining based flow cytometry analysis (reference value: 28.0%)", "format": "functional"}, "[38]": {"assay": "Upregulation of SOCS1 expression level in human HepG2 cells assessed as fold change by KEGG enrichment analysis", "format": "functional"}}, "note": "pIC50: −log10 of the molar value. Active and inactive are the calls of the source. No cut-off for these calls is given here."}
{"smiles": "CC(C)C[C@H]1NC(=O)[C@H]([C@@H](C)OCc2ccccc2)NC(=O)[C@H]2CCCN2C(=O)CN2C(=O)c3ccccc3[C@@]2(O)CN(Cc2ccccc2)C(=O)[C@H](Cc2ccccc2)NC(=O)[C@H]2CCCN2C(=O)[C@H](Cc2c[nH]c3ccccc23)NC1=O", "values": [{"measurement": "Activity", "setting": "[1]", "value": "Tde"}, {"measurement": "Activity", "setting": "[2]", "value": 37.1, "unit": "%"}, {"measurement": "Activity", "setting": "[3]", "value": "Active"}, {"measurement": "Activity", "setting": "[4]", "value": "Non-Toxic"}, {"measurement": "Activity", "setting": "[5]", "value": 20.2, "unit": "%"}, {"measurement": "Activity", "setting": "[6]", "value": 13.5, "unit": "%"}, {"measurement": "Activity", "setting": "[7]", "value": 11.7, "unit": "%"}, {"measurement": "Activity", "setting": "[8]", "value": 23, "unit": "%"}, {"measurement": "Activity", "setting": "[9]", "value": 16.8, "unit": "%"}, {"measurement": "Activity", "setting": "[10]", "value": 21.9, "unit": "%"}, {"measurement": "Activity", "setting": "[11]", "value": "Non-Toxic"}, {"measurement": "Activity", "setting": "[12]", "value": "Non-Toxic"}, {"measurement": "Activity", "setting": "[13]", "value": 35.9, "unit": "%"}, {"measurement": "fold change (FC)", "setting": "[14]", "value": -1.198}, {"measurement": "Activity", "setting": "[15]", "value": 18.9, "unit": "%"}, {"measurement": "fold change (FC)", "setting": "[16]", "value": 2.135}, {"measurement": "Activity", "setting": "[17]", "value": 28.7, "unit": "%"}, {"measurement": "Activity", "setting": "[18]", "value": "Active"}, {"measurement": "Activity", "setting": "[19]", "value": "Active"}, {"measurement": "fold change (FC)", "setting": "[20]", "value": 9.022}, {"measurement": "Activity", "setting": "[21]", "value": "Non-Toxic"}, {"measurement": "pIC50", "setting": "[22]", "value": 4.77}, {"measurement": "Activity", "setting": "[23]", "value": 0, "unit": "%"}, {"measurement": "Activity", "setting": "[24]", "value": 4.57, "unit": "%"}, {"measurement": "viability at 20 µM", "setting": "[25]", "value": 52, "unit": "%"}, {"measurement": "Activity", "setting": "[26]", "value": "Active"}, {"measurement": "viability at 10 µM", "setting": "[27]", "value": 68.1, "unit": "%"}, {"measurement": "Activity", "setting": "[28]", "value": "Active"}, {"measurement": "fold change (FC)", "setting": "[29]", "value": 1.751}, {"measurement": "Papp at 2 h, 10 µM", "setting": "[30]", "value": "> 20", "unit": "×10⁻⁶ cm/s"}, {"measurement": "Activity", "setting": "[31]", "value": 28.1, "unit": "%"}, {"measurement": "fold change (FC)", "setting": "[32]", "value": -3.288}, {"measurement": "fold change (FC)", "setting": "[33]", "value": 1.218}, {"measurement": "fold change (FC)", "setting": "[34]", "value": 1.584}, {"measurement": "fold change (FC)", "setting": "[35]", "value": 1.094}, {"measurement": "Activity", "setting": "[36]", "value": 18.4, "unit": "%"}, {"measurement": "Activity", "setting": "[37]", "value": 0, "unit": "%"}, {"measurement": "fold change (FC)", "setting": "[38]", "value": 1.707}]}
